Source: patent US20040141944A1, “Inhibition of xenoreactive antibodies” (priority 1998, published 2004)

Tested on: peripheral blood-derived ASCs
Test: short-term in vitro effects of TPC on peripheral blood-derived ASCs (ELISPOT)
Type: cell-based
Conditions: 50 ug/mL TPC (410S), 2 hours at 37° C., heparinized peripheral blood from a normal donor
Procedure: To each well of the first 10 columns of a sterile hydrazine modified polystyrene 96-well plate (Corning Costar, Cambridge, Mass.), 100 μL per well of a solution containing 3.2 mg/mL αGal(1,3)Gal β 1-4 GlcNAc, 3.1 mg/mL EDC and 2.4 mg/mL NHS were added in a darkened cold room and the reaction proceeded for four hours. After careful washing with sterile H2O, the plates were completely covered with plastic strips and stored at 4° C. until use. Plates were blocked with sterile 400 ul/well of PBS/1% HSA for 2 hours at 37° C. Peripheral blood mononuclear cells were isolated by Ficoll-Hypaque (specific gravity, 1.077 g/mL; Pharmacia Fine Chemicals, Piscatawy, N.J.) density gradients at 400 g for 30 min. at 22° C. […] Plates were incubated overnight in the dark at room temperature and single Ab-secreting, spot forming cells (ASC) were visualized, analyzed and counted under low magnification using an inverted phase microscope. Data represents total isotype specific anti-gal Ab-secreting cells/10^6 PBMNCs, calculated from serially diluted cell samples.
short-term in vitro effects of TPC on peripheral blood-derived ASCs were assessed by incubating (2 hours at 37° C., with rotation at 6 rpm) heparinized peripheral blood from a normal donor in the presence or absence of 50 ug/mL TPC (410S). […]

(αGal(1,3)Gal β 1-4 GlcNAc)4-PEG [Example 410S]
effect on the number of detectable ASCs: no effect
effect on total cell yield and viability: no effect
